Reference: patent US8309685B2 (Celgene Avilomics Research, Inc., priority 2007, dated 2012)
Like-named read-outs stand apart in the source and are kept apart here.

Assays:
[1] = target: T1, wild type HCV NS3/4A 1b protease enzyme (Hepatitis C virus genotype 1b, UniProt P26663); assay: biochemical; assay type: biochemical
T1 construct: 10× stocks of NS3/4A protease enzyme from Bioenza (Mountain View, Calif.); purchased Bioenza (Mountain View, Calif.)
Description: (§1) HCV Protease FRET Assay for Wild Type and Mutated NS3/4A 1b Enzymes (IC50)
(§2) Protease reactions were started with the addition of 45 μL of the FRET substrate and monitored for 120 minutes at λex487/λem514 through Quad^4 monochromoters in a Synergy^4 plate reader from BioTek (Winooski, Vt.). At the conclusion of each assay, progress curves from each well were examined for linear reaction kinetics and fit statistics (R^2, absolute sum of squares).
(§3) The compound numbers correspond to the compound numbers in Table 3.

[2] = target: T2, A156T mutant of the HCV NS3/4A 1b protease enzyme (Hepatitis C virus genotype 1b, UniProt P26663, A1182T); assay: HCV Protease FRET Assay (IC50), A156T mutant; assay type: biochemical
T2 construct: 10× stocks of NS3/4A protease enzyme from Bioenza (Mountain View, Calif.); purchased Bioenza (Mountain View, Calif.)
Description: as §1
The protocol is a modified FRET-based assay (v—02) from In Vitro Resistance Studies of HCV Serine Protease Inhibitors, 2004, JBC, vol. 279, No. 17, pp 17508-17514.
10× stocks of NS3/4A protease enzyme from Bioenza (Mountain View, Calif.) and 1.13× 5-FAM/QXL™ 520 FRET peptide substrate from Anaspec (San Jose, Calif.) were prepared in 50 mM HEPES, pH 7.8, 100 mM NaCl, 5 mM DTT and 20% glycerol. 5 μL of each enzyme were pre-incubated in a Corning (#3573) 384-well, black, non-treated microtiter plate (Corning, N.Y.) for 30 min at 25° C. with a 0.5 μL volume of 50% DMSO and serially diluted compounds prepared in 50% DMSO. Protease reactions were started with the addition of 45 μL of the FRET substrate and monitored for 120 minutes at λex487/λem514 through Quad^4 monochromoters in a Synergy^4 plate reader from BioTek (Winooski, Vt.). At the conclusion of each assay, progress curves from each well were examined for linear reaction kinetics and fit statistics (R^2, absolute sum of squares). Initial velocity (0 minutes to 30+ minutes) from each reaction was determined from the slope of a plot of relative fluorescence units vs time (minutes) and then plotted against inhibitor concentration to estimate IC50 from log[Inhibitor] vs Response, Variable Slope model in GraphPad Prism from GraphPad Software (San Diego, Calif.).
The compound numbers correspond to the compound numbers in Table 3. […] ;

[3] = target: T3, D168A mutant of the HCV NS3/4A 1b protease enzyme (Hepatitis C virus genotype 1b, UniProt P26663, D1194A); assay: HCV Protease FRET Assay (IC50), D168A mutant; assay type: biochemical
T3 construct: 10× stocks of NS3/4A protease enzyme from Bioenza (Mountain View, Calif.); purchased Bioenza (Mountain View, Calif.)
Description: as §1, §2, §3

[4] = test system: HCV RNA replicon in cell line ET (luc-ubi-neo/ET), human Huh7 hepatoma; assay: Method A: HCV RNA replicon antiviral assay (luciferase, ET cell line); assay type: cell-based, Hepatitis C virus
How it was run: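 ET replicon cells (Huh7 carrying luciferase-reporter HCV replicon) plated at 5×10^3 cells/well and exposed 72 hr to six 3-fold drug concentrations in DMEM/5% FBS. Replicon luciferase gave EC50/EC90; CytoTox-1 cell counts gave IC50 (viability); […]. Interferon alpha-2b served as positive control.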

[5] = test system: cell line ET (luc-ubi-neo/ET), human Huh7 hepatoma cell line; assay: Method A: cytotoxicity in ET replicon cells (CytoTox-1); assay type: cell-based; conditions: concentration decreasing cell viability by 50%, 72 hr
Description: The compounds were assayed to evaluate the antiviral activity and cytotoxicity of compounds in vitro using HCV RNA replicons. This assay used the cell line ET (luc-ubi-neo/ET), which is a human Huh7 hepatoma cell line that contains an HCV RNA replicon with a stable luciferase (Luc) reporter and three cell culture-adaptive mutations. […]
The ET cell line was grown in Dulbecco's modified essential media (DMEM), 10% fetal bovine serum (FBS), 1% penicillin-streptomycin (pen-strep), 1% glutamine, 250 μg/ml G418 in a 5% CO2 incubator at 37° C. All cell culture reagents were obtained from Mediatech (Manassas, Va.). Cells were trypsinized (1% trypsin:EDTA) and plated out at 5×10^3 cells/well in white 96-well assay plates (Costar) dedicated to cell number (cytotoxicity) or antiviral activity assessments. Drugs were added at six 3-fold concentrations each and the assay was run in DMEM, 5% FBS, 1% pen-strep, 1% glutamine. Human interferon alpha-2b (PBL Biolabs, New Brunswick, N.J.) was included in each run as a positive control compound. Cells were processed 72 hr post drug addition when the cells are still subconfluent. Antiviral activity was measured by analyzing replicon-derived luciferase activity using the Steady-Glo Luciferase Assay System (Promega, Madison, Wis.) according to manufacturer's instruction. The number of cells in each well was determined by CytoTox-1 reagent (Promega). […].

[6] = target: T1, wild type HCV NS3/4A 1b protease enzyme; assay: HCV Protease FRET Assay (IC50_APP), wild type; assay type: biochemical; conditions: read-out: IC50_APP, WT; apparent IC50, wild type NS3/4A 1b
[7] = target: T2, A156T mutant of the HCV NS3/4A 1b protease enzyme; assay: HCV Protease FRET Assay (IC50_APP), A156T mutant; assay type: biochemical; conditions: read-out: IC50_APP, HCV A156T; apparent IC50, A156T mutant
[8] = target: T3, D168A mutant of the HCV NS3/4A 1b protease enzyme; assay: HCV Protease FRET Assay (IC50_APP), D168A mutant; assay type: biochemical; conditions: read-out: IC50_APP, HCV D168A; apparent IC50, D168A mutant
[9] = read-out: Inhibition, WT; WT enzyme, FRET assay
[10] = read-out: Inhibition, HCV A156T; A156T enzyme, FRET assay
[11] = read-out: Inhibition, HCV D168A; D168A enzyme, FRET assay
[12] = Hepatitis C virus, Huh-7, assay described in Example 22
[13] = Hepatitis C virus, Huh-7, Replicon, assay of Example 22, 72 hr, read-out: Inhibition, Replicon
[14] = Hepatitis C virus, Huh-7, assay described in Example 22, read-out: Replicon (IC50)

SMILES | IC50 [1, 9] | IC50 [2, 10] | IC50 [3, 11] | IC90 [4, 12] | IC50 [4, 13] | IC50 [4, 14] | Inhibition, Cytotoxicity [5] | IC50 [6] | IC50 [7] | IC50 [8] | IC50 ([1]; WT enzyme, FRET assay; read-out: Inhibition, WT) | IC50 ([2]; A156T enzyme, FRET assay; read-out: Inhibition, HCV A156T) | IC50 ([3]; D168A enzyme, FRET assay; read-out: Inhibition, HCV D168A) | IC50 ([4]; Replicon, assay of Example 22, 72 hr, read-out: Inhibition, Replicon)
C=C[C@@H]1C[C@]1(NC(=O)[C@@H]1C[C@@H](Oc2cc(-c3ccccc3)nc3cc(OC)ccc23)CN1C(=O)[C@H](CCNC(=O)CCl)NC(=O)OC(C)(C)C)C(=O)NS(=O)(=O)c1ccccc1 [Compound I-4, (2S)-2-[[(1,1-dimethylethoxy)carbonyl]amino]-4-(chloroacetyl)amino-butanoyl-(4R)-4-[(7-methoxy-2-phenyl-4-quinolinyl)oxy]-L-prolyl-1-amino-2-ethenyl-N-(phenylsulfonyl)-(1R,2S)-cyclopropanecarboxamide] | < 10 nM | 10 to 100 nM | 10 to 100 nM | 100 to 1000 nM | 10 to 100 nM | 10 to 100 nM | D (IC50>1000 nM and <10,000 nM) | < 10 nM | 100 to 1000 nM | 100 to 1000 nM | – | – | – | –
C=CC(=O)NCC[C@H](NC(=O)OC(C)(C)C)C(=O)N1C[C@H](Oc2cc(-c3ccccc3)nc3cc(OC)ccc23)C[C@H]1C(=O)N[C@]1(C(=O)NS(=O)(=O)c2ccccc2)C[C@H]1C=C [Compound I-8, (2S)-2-[[(1,1-dimethylethoxy)carbonyl]amino]-4-(2-propenoyl)amino-butanoyl-(4R)-4-[(7-methoxy-2-phenyl-4-quinolinyl)oxy]-L-prolyl-1-amino-2-ethenyl-N-(phenylsulfonyl)-(1R,2S)-cyclopropanecarboxamide] | < 10 nM | 10 to 100 nM | 10 to 100 nM | – | 100 to 1000 nM | – | D (IC50>1000 nM and <10,000 nM) | – | – | – | – | – | – | –
C=C[C@@H]1C[C@]1(NC(=O)[C@@H]1C[C@@H](Oc2cc(-c3ccccc3)nc3cc(OC)ccc23)CN1C(=O)[C@H](CCN(C)C(=O)CCl)NC(=O)OC(C)(C)C)C(=O)NS(=O)(=O)c1ccccc1 [Compound I-9, (2S)-2-[[(1,1-dimethylethoxy)carbonyl]amino]-4-(chloroacetyl)methylamino-butanoyl-(4R)-4-[(7-methoxy-2-phenyl-4-quinolinyl)oxy]-L-prolyl-1-amino-2-ethenyl-N-(phenylsulfonyl)-(1R,2S)-cyclopropanecarboxamide] | < 10 nM | < 10 nM | < 10 nM | > 10000 nM | 10 to 100 nM | 10 to 100 nM | C (IC50>100 nM and ≦1000 nM) | < 10 nM | 10 to 100 nM | 100 to 1000 nM | – | – | – | –
C=C[C@@H]1C[C@]1(NC(=O)[C@@H]1C[C@@H](Oc2cc(-c3ccccc3)nc3cc(OC)ccc23)CN1C(=O)[C@H](Cn1sc2ccccc2c1=O)NC(=O)OC(C)(C)C)C(=O)NS(=O)(=O)c1ccccc1 [Compound I-10, N-[(1,1-dimethylethoxy)carbonyl]-3-(benzoisothiazolin-3-one-2-yl)-L-alanyl-(4R)-4-[(7-methoxy-2-phenyl-4-quinolinyl)oxy]-L-prolyl-1-amino-2-ethenyl-N-(phenylsulfonyl)-(1R,2S)-cyclopropanecarboxamide] | < 10 nM | 10 to 100 nM | 10 to 100 nM | – | 100 to 1000 nM | – | D (IC50>1000 nM and <10,000 nM) | – | – | – | – | – | – | –
C=C[C@@H]1C[C@]1(NC(=O)[C@@H]1C[C@@H](Oc2cc(-c3ccccc3)nc3cc(OC)ccc23)CN1C(=O)[C@H](CCNC(=O)C(C)Br)NC(=O)OC(C)(C)C)C(=O)NS(=O)(=O)c1ccccc1 (some centres unmarked) [Compound I-20] | < 10 nM | 100 to 1000 nM | 100 to 1000 nM | – | 100 to 1000 nM | – | D (IC50>1000 nM and <10,000 nM) | – | – | – | – | – | – | –
C=C[C@@H]1C[C@]1(NC(=O)[C@@H]1C[C@@H](Oc2cc(-c3ccccc3)nc3cc(OC)ccc23)CN1C(=O)[C@H](CNC(=O)C(Cl)c1ccccc1)NC(=O)OC(C)(C)C)C(=O)NS(=O)(=O)c1ccccc1 (stereo partly drawn) [Compound I-23, tert-butyl(S)-3-(2-chloro-2-phenylacetamido)-1-((2S,4R)-4-(7-methoxy-2-phenylquinolin-4-yloxy)-2-((1R,2S)-1-(phenylsulfonylcarbamoyl)-2-vinylcyclopropylcarbamoyl)pyrrolidin-1-yl)-1-oxopropan-2-ylcarbamate] | < 10 nM | 1000 to 10000 nM | 100 to 1000 nM | – | 100 to 1000 nM | – | D (IC50>1000 nM and <10,000 nM) | – | – | – | – | – | – | –
C=C[C@@H]1C[C@]1(NC(=O)[C@@H]1C[C@@H](Oc2cc(-c3ccccc3)nc3cc(OC)ccc23)CN1C(=O)[C@H](CN(C)C(=O)CCl)NC(=O)OC(C)(C)C)C(=O)NS(=O)(=O)c1ccccc1 [Compound I-29, tert-butyl-(S)-3-(2-chloro-N-methylacetamido)-1-((2S,4R)-4-(7-methoxy-2-phenylquinolin-4-yloxy)-2-((1R,2S)-1-(phenylsulfonylcarbamoyl)-2-vinylcyclopropylcarbamoyl)pyrrolidin-1-yl)-1-oxopropan-2-ylcarbamate] | < 10 nM | < 10 nM | < 10 nM | – | 10 to 100 nM | – | C (IC50>100 nM and ≦1000 nM) | – | – | – | – | – | – | –
C=C[C@@H]1C[C@]1(NC(=O)[C@@H]1C[C@@H](Oc2cc(-c3ccccc3)nc3cc(OC)ccc23)CN1C(=O)[C@H](CNC(=O)CC)NC(=O)OC(C)(C)C)C(=O)NS(=O)(=O)c1ccccc1 [I^R-3, N-[(1,1-dimethylethoxy)carbonyl]-3-[(propionyl)amino]-L-alanyl-(4R)-4-[(7-methoxy-2-phenyl-4-quinolinyl)oxy]-L-prolyl-1-amino-2-ethenyl-N-(phenylsulfonyl)-(1R,2S)-cyclopropanecarboxamide] | – | – | – | – | – | – | E (IC50≧10,000 nM) | – | – | – | < 10 nM | 10 to 100 nM | 100 to 1000 nM | 1000 to 10000 nM
